What was measured:
[1] = tested on: wild type Arabidopsis seedlings; assay: Treatment of wild type seedlings, morphological phenotype; assay type: in vivo, Arabidopsis thaliana; settings: 2,4-D or high concentrations of auxin
Description: Expression of the plPAC gene of the present invention is inducible by auxin as described below in Example 4. Treatment of wild type Arabidopsis seedlings with 2,4-D or high concentrations of auxin result in plants with the same phenotype as that of ATPAC mutant plants. […] Under this model, tissues that express this pump would accumulate auxin as a result of the mutation and the altered auxin balance could be responsible for the altered growth patters typifying the ATPAC phenotype. Further support of this model is the similarity of auxin to indolylic substrates pumped by human MDR1, and the finding that ATPAC expression is increased by auxin.

ATPAC = molecular target: T1, ATPAC (Arabidopsis thaliana, UniProt Q9LJX0, DUP906-907/P1064L); assay: NPA binding to yeast expressing ATPAC
T1 construct: The 3.76 kb cDNA clone encodes a polypeptide 1,254 amino acids in length; expressed in transfected cells; host or cells: yeast (wild type and a strain lacking seven ABC transporters)
T1 sequence (Q9LJX0 other isoform, or with tags, fused parts or gaps DUP906-907/P1064L): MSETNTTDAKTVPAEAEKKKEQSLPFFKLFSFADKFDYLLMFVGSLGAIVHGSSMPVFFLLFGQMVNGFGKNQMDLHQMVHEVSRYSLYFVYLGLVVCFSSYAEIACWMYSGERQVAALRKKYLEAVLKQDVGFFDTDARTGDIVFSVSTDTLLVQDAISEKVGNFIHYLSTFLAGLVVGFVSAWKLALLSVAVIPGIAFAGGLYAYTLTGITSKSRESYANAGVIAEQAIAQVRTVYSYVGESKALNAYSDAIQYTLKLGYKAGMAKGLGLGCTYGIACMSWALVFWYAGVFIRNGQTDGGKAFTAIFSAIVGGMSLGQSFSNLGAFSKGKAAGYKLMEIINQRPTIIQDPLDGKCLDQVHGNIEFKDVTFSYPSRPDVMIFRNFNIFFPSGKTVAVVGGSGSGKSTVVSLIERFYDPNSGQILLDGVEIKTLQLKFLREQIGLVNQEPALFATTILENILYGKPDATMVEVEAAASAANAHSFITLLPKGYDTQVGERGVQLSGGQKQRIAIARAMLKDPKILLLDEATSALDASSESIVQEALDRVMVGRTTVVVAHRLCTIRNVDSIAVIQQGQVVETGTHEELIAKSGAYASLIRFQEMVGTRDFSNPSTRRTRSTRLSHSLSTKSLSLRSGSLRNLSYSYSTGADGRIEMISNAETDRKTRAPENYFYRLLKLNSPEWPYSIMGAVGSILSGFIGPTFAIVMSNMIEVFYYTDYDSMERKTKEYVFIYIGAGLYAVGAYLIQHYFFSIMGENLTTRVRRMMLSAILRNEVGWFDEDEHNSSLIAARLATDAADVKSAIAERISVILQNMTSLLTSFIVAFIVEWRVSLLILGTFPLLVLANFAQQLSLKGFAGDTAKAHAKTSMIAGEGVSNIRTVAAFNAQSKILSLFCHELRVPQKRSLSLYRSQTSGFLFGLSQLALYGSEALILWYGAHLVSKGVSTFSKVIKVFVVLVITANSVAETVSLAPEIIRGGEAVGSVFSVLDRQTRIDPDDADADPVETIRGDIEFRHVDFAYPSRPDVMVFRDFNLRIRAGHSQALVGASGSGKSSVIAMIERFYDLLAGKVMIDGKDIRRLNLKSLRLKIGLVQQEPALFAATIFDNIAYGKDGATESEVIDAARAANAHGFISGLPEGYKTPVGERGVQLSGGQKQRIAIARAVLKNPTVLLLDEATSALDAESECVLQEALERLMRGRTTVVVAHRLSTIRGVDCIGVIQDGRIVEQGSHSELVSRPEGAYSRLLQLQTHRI
Description: Expression in Yeast and Xenopus Oocytes. ATPAC cDNA was expressed in wild type yeast as well as in yeasts lacking seven ABC transporters (as described by Decottignies et al., (1998) J. Biol. Chem. 273:12612-22)in order to create a heterologous system for studying function of the transporter. The yeasts were exposed to toxic compounds that are known substrates for human MDR1. […] Further, there was no evidence of a drug-pumping role for ATPAC.
ATPAC Binds the Auxin Transport Inhibitor naphthylphthalamic acid (NPA). Yeast expressing ATPAC was assayed for NPA binding. […] Bound NPA was not displaced by benzoic acid, a related hydrophobic organic acid. Proteins that bind NPA and influence auxin transport are considered important regulators of hormone action and therefore, of plant development.

O=C(O)COc1ccc(Cl)cc1Cl [2,4-D]
Phenotype of treated wild type seedlings [1]: strongly curved organs

O=C(O)c1ccccc1C(=O)Nc1cccc2ccccc12 [NPA, naphthylphthalamic acid]
NPA binding to ATPAC-expressing yeast (ATPAC; ATPAC-expressing yeast): bound tightly and specifically
NPA binding to control yeast (ATPAC; control yeast): not to control yeast

O=C(O)Cc1c[nH]c2ccccc12 [auxin]
Phenotype of treated wild type seedlings [1]: strongly curved organs

O=C(O)c1ccccc1 [benzoic acid]
Displacement of bound NPA (ATPAC; ATPAC-expressing yeast, bound NPA): not displaced

From patent US6858774B2, “MDR-like ABC transporter gene from plants” (Wisconsin Alumni Research Foundation, priority 1998, dated 2005)
